Values joined by “and” are separate entries in the source; they are usually repeats but may differ in a detail not shown here. Equal values may be shown once.
Experiments:
Experiment in all cases: Kinase inhibitor specificity profiling (Reaction Biology Corporation)
Type in all cases: biochemical
Design in all cases: % Enzyme Activity (relative to DMSO controls): concentration or dose not given beside the values
[1] = target: T1, panel of 370 protein kinases (Homo sapiens, UniProt P25098); conditions: 2 h, kinase GRK2; read-out: % Enzyme Activity (relative to DMSO controls)
T1 construct: purchased Reaction Biology Corporation (assay service)

[2] = target: T2, panel of 370 protein kinases (Homo sapiens, UniProt Q13555); conditions: 2 h, kinase CAMK2g; read-out: % Enzyme Activity (relative to DMSO controls)
T2 construct: purchased Reaction Biology Corporation (assay service)

[3] = target: T3, panel of 370 protein kinases (Homo sapiens, UniProt P32298); conditions: 2 h, kinase GRK4; read-out: % Enzyme Activity (relative to DMSO controls)
T3 construct: purchased Reaction Biology Corporation (assay service)

[4] = target: T4, panel of 370 protein kinases (Homo sapiens, UniProt Q5TCY1); conditions: 2 h, kinase TTBK1; read-out: % Enzyme Activity (relative to DMSO controls)
T4 construct: purchased Reaction Biology Corporation (assay service)

[5] = target: T5, panel of 370 protein kinases (Homo sapiens, UniProt Q8WXR4); conditions: 2 h, kinase MYO3b; read-out: % Enzyme Activity (relative to DMSO controls)
T5 construct: purchased Reaction Biology Corporation (assay service)

[6] = target: T6, panel of 370 protein kinases (Homo sapiens, UniProt Q13164); conditions: 2 h, kinase ERK5/MAPK7; read-out: % Enzyme Activity (relative to DMSO controls)
T6 construct: purchased Reaction Biology Corporation (assay service)

[7] = target: T7, panel of 370 protein kinases (Homo sapiens, UniProt P54760); conditions: 2 h, kinase EPHB4; read-out: % Enzyme Activity (relative to DMSO controls)
T7 construct: purchased Reaction Biology Corporation (assay service)

[8] = target: T8, panel of 370 protein kinases (Homo sapiens, UniProt P57078); conditions: 2 h, kinase RIPK4; read-out: % Enzyme Activity (relative to DMSO controls)
T8 construct: purchased Reaction Biology Corporation (assay service)

[9] = target: T9, panel of 370 protein kinases (Homo sapiens, UniProt Q13233); conditions: 2 h, kinase MEKK1; read-out: % Enzyme Activity (relative to DMSO controls)
T9 construct: purchased Reaction Biology Corporation (assay service)

[10] = target: T10, panel of 370 protein kinases (Homo sapiens, UniProt Q9H422); conditions: 2 h, kinase HIPK3; read-out: % Enzyme Activity (relative to DMSO controls)
T10 construct: purchased Reaction Biology Corporation (assay service)

[11] = target: T11, panel of 370 protein kinases (Homo sapiens, UniProt Q9NQU5); conditions: 2 h, kinase PAK6; read-out: % Enzyme Activity (relative to DMSO controls)
T11 construct: purchased Reaction Biology Corporation (assay service)

[12] = target: T12, panel of 370 protein kinases (Homo sapiens, UniProt Q96L34); conditions: kinase MARK4
T12 construct: purchased Reaction Biology Corporation (assay service)

[13] = target: T13, panel of 370 protein kinases (Homo sapiens, UniProt Q32MK0); conditions: 2 h, kinase MYLK3; read-out: % Enzyme Activity (relative to DMSO controls)
T13 construct: purchased Reaction Biology Corporation (assay service)

[14] = target: T14, panel of 370 protein kinases (Homo sapiens, UniProt Q15569); conditions: 2 h, kinase TESK1; read-out: % Enzyme Activity (relative to DMSO controls)
T14 construct: purchased Reaction Biology Corporation (assay service)

[15] = target: T15, panel of 370 protein kinases (Homo sapiens, UniProt Q92918); conditions: 2 h, kinase HPK1/MAP4K1; read-out: % Enzyme Activity (relative to DMSO controls)
T15 construct: purchased Reaction Biology Corporation (assay service)

[16] = target: T16, panel of 370 protein kinases (Homo sapiens, UniProt P53779); conditions: kinase JNK3
T16 construct: purchased Reaction Biology Corporation (assay service)

[17] = target: T17, panel of 370 protein kinases (Homo sapiens, UniProt Q6PHR2); conditions: kinase ULK3
T17 construct: purchased Reaction Biology Corporation (assay service)

[18] = target: T18, panel of 370 protein kinases (Homo sapiens, UniProt Q9Y3S1); conditions: 2 h, kinase WNK2; read-out: % Enzyme Activity (relative to DMSO controls)
T18 construct: purchased Reaction Biology Corporation (assay service)

[19] = target: T19, panel of 370 protein kinases (Homo sapiens, UniProt Q12866); conditions: 2 h, kinase c-MER; read-out: % Enzyme Activity (relative to DMSO controls)
T19 construct: purchased Reaction Biology Corporation (assay service)

[20] = target: T20, panel of 370 protein kinases (Homo sapiens, UniProt Q9NRM7); conditions: kinase LATS2
T20 construct: purchased Reaction Biology Corporation (assay service)

[21] = target: T21, panel of 370 protein kinases (Homo sapiens, UniProt P21802); conditions: 2 h, kinase FGFR2; read-out: % Enzyme Activity (relative to DMSO controls)
T21 construct: purchased Reaction Biology Corporation (assay service)

[22] = target: T22, panel of 370 protein kinases (Homo sapiens, UniProt P07949); conditions: 2 h, kinase RET; read-out: % Enzyme Activity (relative to DMSO controls)
T22 construct: purchased Reaction Biology Corporation (assay service)

T16 sequence (P53779 whole entry): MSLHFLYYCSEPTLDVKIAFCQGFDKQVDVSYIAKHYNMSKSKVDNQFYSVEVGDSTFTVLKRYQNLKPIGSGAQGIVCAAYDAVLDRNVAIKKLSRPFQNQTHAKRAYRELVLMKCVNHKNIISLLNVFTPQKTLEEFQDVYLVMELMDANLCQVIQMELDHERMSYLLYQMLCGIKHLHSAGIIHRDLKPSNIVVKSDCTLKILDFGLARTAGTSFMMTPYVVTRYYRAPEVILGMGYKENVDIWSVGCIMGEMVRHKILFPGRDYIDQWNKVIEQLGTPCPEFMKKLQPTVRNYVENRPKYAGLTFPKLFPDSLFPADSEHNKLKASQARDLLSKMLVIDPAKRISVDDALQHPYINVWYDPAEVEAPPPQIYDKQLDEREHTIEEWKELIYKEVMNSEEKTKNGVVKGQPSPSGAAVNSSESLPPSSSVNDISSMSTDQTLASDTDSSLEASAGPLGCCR
T20 sequence (Q9NRM7 whole entry): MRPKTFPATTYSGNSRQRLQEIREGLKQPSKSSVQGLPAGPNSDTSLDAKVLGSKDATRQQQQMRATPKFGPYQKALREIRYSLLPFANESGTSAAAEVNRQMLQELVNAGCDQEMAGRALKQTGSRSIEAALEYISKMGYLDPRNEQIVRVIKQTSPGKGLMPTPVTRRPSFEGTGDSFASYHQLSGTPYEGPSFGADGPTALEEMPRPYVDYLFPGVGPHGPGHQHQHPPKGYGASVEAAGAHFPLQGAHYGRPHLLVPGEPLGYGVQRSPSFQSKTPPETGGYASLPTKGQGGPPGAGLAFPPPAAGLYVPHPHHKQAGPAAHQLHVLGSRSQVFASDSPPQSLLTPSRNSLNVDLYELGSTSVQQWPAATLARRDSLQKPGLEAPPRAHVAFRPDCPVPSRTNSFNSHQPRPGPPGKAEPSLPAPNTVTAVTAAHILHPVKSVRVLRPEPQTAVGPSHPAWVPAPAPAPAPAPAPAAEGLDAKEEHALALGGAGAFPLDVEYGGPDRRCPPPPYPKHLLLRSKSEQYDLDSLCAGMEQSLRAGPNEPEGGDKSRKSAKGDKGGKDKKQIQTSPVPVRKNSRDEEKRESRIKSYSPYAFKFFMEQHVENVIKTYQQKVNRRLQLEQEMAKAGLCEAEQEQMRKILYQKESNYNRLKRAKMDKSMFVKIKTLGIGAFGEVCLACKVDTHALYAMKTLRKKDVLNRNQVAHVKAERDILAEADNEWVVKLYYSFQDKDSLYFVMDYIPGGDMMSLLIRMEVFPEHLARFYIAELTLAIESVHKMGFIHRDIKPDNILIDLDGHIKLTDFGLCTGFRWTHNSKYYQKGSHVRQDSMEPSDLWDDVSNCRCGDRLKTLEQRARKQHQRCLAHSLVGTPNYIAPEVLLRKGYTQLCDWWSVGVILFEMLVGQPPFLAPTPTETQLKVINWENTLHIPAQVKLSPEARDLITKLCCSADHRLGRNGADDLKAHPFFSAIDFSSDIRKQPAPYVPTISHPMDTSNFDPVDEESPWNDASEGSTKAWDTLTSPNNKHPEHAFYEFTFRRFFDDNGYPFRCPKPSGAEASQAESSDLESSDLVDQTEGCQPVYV
T12 sequence (Q96L34 whole entry): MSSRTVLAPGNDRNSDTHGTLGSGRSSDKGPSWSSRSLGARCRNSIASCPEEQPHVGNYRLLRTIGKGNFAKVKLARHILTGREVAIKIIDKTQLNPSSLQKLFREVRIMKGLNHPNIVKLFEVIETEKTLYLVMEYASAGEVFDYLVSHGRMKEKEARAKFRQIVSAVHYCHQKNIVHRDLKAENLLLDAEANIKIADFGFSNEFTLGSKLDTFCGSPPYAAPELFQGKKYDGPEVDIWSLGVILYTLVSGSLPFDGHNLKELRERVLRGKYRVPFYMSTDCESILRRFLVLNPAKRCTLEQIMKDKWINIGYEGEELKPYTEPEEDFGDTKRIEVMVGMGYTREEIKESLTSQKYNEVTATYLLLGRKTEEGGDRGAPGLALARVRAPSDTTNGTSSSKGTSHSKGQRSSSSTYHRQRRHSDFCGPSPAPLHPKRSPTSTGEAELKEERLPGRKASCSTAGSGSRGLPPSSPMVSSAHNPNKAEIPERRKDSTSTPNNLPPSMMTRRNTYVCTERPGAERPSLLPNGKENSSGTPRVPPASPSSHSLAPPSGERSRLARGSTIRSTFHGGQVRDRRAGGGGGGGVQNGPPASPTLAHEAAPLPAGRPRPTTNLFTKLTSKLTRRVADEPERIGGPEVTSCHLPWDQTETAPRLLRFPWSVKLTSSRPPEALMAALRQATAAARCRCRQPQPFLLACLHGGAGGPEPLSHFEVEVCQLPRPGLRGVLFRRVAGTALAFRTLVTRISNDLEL
T17 sequence (Q6PHR2 whole entry): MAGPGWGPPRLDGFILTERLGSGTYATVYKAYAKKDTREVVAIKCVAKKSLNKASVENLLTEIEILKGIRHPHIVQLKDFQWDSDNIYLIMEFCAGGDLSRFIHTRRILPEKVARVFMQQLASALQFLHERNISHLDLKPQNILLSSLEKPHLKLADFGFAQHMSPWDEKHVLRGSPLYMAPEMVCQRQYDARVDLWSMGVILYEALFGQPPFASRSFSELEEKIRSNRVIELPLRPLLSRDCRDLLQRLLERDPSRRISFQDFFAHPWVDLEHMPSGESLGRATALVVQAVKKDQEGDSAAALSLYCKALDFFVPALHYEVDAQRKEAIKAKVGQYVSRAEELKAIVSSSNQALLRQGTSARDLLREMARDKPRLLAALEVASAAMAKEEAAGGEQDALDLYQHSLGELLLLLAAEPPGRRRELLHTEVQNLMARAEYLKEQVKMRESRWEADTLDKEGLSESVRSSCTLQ
T8 sequence (P57078 whole entry): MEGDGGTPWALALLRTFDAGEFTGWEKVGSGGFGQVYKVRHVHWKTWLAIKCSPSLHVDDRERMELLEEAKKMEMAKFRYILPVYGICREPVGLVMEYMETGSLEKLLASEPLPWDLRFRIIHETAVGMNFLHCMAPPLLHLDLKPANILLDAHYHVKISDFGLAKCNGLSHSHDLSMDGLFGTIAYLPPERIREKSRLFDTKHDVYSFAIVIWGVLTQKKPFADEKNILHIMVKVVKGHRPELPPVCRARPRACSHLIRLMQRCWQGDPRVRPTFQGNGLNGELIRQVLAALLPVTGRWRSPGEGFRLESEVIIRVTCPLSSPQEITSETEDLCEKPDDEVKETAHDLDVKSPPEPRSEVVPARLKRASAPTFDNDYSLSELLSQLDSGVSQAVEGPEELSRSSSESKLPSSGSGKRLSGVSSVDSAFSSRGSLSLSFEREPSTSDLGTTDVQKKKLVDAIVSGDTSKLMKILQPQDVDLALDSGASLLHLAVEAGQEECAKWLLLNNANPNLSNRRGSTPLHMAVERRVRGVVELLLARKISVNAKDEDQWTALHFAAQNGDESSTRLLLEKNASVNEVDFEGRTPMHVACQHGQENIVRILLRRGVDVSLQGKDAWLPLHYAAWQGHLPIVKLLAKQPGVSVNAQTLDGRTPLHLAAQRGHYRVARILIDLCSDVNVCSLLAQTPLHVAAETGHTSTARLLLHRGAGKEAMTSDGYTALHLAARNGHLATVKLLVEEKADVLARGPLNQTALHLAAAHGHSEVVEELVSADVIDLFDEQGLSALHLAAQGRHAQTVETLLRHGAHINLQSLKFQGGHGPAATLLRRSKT
T21 sequence (P21802 22-821): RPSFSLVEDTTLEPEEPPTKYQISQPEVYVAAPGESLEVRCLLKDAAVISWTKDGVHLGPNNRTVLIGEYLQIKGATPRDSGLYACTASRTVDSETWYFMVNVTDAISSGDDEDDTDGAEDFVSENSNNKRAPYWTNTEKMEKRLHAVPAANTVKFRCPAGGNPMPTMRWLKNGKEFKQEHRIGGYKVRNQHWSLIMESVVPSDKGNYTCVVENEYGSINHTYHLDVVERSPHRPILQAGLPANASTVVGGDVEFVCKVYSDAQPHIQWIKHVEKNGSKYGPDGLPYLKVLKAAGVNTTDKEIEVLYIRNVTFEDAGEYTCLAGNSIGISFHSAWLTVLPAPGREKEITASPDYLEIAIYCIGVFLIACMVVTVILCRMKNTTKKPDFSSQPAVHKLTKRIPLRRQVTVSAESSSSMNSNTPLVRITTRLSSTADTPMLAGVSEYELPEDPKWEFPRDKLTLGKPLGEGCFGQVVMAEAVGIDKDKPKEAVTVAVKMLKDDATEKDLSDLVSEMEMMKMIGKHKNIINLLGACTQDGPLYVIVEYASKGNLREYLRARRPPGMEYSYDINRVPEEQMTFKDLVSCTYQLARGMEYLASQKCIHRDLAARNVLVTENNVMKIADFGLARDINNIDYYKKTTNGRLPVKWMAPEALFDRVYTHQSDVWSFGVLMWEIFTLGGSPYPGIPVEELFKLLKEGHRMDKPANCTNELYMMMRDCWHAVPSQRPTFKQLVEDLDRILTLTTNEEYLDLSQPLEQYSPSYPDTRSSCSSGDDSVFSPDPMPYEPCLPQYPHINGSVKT
T3 sequence (P32298 whole entry): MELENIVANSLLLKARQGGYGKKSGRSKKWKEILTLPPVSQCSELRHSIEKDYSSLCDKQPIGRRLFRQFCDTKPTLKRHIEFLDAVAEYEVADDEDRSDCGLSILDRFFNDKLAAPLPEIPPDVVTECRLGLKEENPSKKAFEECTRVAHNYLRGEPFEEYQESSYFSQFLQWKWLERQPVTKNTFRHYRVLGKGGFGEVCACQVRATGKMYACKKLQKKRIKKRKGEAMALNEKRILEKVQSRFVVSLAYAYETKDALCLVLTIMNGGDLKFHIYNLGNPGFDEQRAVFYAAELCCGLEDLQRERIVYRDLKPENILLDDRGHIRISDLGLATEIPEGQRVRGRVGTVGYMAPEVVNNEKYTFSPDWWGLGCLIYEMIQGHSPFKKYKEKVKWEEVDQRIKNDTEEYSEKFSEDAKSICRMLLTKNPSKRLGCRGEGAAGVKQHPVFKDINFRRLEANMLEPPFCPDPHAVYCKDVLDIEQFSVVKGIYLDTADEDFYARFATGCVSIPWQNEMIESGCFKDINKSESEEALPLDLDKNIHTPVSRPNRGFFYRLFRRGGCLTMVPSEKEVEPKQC

Q: What does the source list for `CCN1CCN(C(=O)c2ccc(Nc3ncc(F)c(-c4ccc5nc(N(C)C)sc5c4)n3)nc2)CC1` [YK-2-69]?
A: remaining activity at 1 µM [1]: 112%; remaining activity at 1 µM [2]: 86%; remaining activity at 1 µM [3]: 95.1%; remaining activity at 1 µM [4]: 97.4%; remaining activity at 1 µM [5]: 106%; remaining activity at 1 µM [6]: 104%; remaining activity at 1 µM [7]: 106%; remaining activity at 1 µM [8]: 92%; remaining activity at 1 µM [9]: 99.7%; remaining activity at 1 µM [10]: 49.6%; remaining activity at 1 µM [11]: 105%; % Enzyme Activity (relative to DMSO controls) [12]: 79.55% and 79.20%; remaining activity at 1 µM [13]: 85.9%; remaining activity at 1 µM [14]: 108%; remaining activity at 1 µM [15]: 104%; % Enzyme Activity (relative to DMSO controls) [16]: 84.96% and 83.74%; % Enzyme Activity (relative to DMSO controls) [17]: 97.12% and 96.24%; remaining activity at 1 µM [18]: 99.9%; remaining activity at 1 µM [19]: 96.8%; % Enzyme Activity (relative to DMSO controls) [20]: 96.27% and 92.88%; remaining activity at 1 µM [21]: 86.2%; remaining activity at 1 µM [22]: 88.1%

Reference: article PMC9133015 (Nature Communications, 2022)
